Experimental data from patent publication US12178809B2, “Pyridinyl sulfonamide derivatives, pharmaceutical compositions and uses thereof” (Boehringer Ingelheim International GmbH, priority 2018, dated 2024).
Where a name gives a salt, the structure may show the parent alone. Read-outs that look alike come from different tables or passages of the source.

Tests used:
[1] = molecular target: AOC2 (Homo sapiens (Human), UniProt O75106); assay: AOC2 biochemical assay (Amplex Red)
Description: An aliquot of 5 μL of the compound dilution is added to a 96 well plate (flat bottom F, black, GREINER bio-one, #655900) in a DMSO concentration of 2%. […] Cells are cultured for 3 days in EMEM culture medium containing 10% FCS (#04-00-1A, Biological Industries). After washing twice with ice cold PBS, cells are lysed by mechanic homogenation and cleared supernatants are shock frozen in liquid nitrogen and stored at -80° C. […] An Aliquot of 45 μL is added to the compound dilution and incubated for 30 min at 37° C. The enzymatic reaction is started with the addition of 50 μL of Amplex® Red reaction mix (final assay concentration: 100 mM sodiumphosphate, 120 μM Amplex® Red reagent (#A22177 Molecular Probes), 1.5 U/mL Horseradish Peroxidase (#P8375 Sigma-Aldrich), 2 mM phenylethylamine (#[…] Sigma-Aldrich), 0.05% Pluronic F-127 (#P3000MP Sigma-Aldrich), pH 7.4, 37° C.). The turnover per time of the substrate is determined directly with a fluorescence reader (Ex 540 nm/Em 590 nm) like Envision 2104 Multilabel Reader (PERKIN ELMER) for 60 min.

[2] = molecular target: human AOC3 enzyme (Homo sapiens (Human), UniProt Q16853); assay: AOC3 biochemical assay (MAO-Glo)
Excerpt: The MAO-Glo™ Assay (commercially available from PROMEGA, #V1402) provides a sensitive method for the measurement of monoamine oxidase (MAO) activity (Valley, M. P. et al., 2006, Anal. Biochem. 359: 238-246) from a variety of tissues, biofluids or recombinant expressed or purified enzymes. As substrate a derivate of the beetle luciferin ((4S)-4,5-dihydro-2-(6-hydroxybenzothiazolyl)-4-thiazole-carboxylic acid) is used, which is oxidized at a primary amine moiety. After a spontaneous elimination and a catalyzed esterase reaction, the turnover of the luciferine by the luciferase is recorded as a signal of AOC3 activity.
An aliquot of 3 μL of the compound dilution is added to a 384 well plate (Optiplate, PS, flat bottom, white, PERKIN ELMER, #6007290) with a final DMSO concentration of 6.6%. Recombinant CHO cells, overexpressing the human (1500 cells/well), mouse (1000 cells/well) or rat (500 cells/well) AOC3 enzyme are diluted in reaction buffer and added in a volume of 15 μL to the wells. After incubation for 20 minutes at 37° C., 2 μL of MAO substrate (dissolved in DMSO at 16 mM, adjusted to assay concentration in reaction buffer to a final assay concentration of 20 μM) is added and further incubated for 60 minutes at 37° C. The turnover of the substrate is determined by the addition of 20 μL of the detection-mix which was generated by the addition of reconstitution buffer with esterase (PROMEGA, #V1402) to the luciferine detection reagent (PROMEGA, #V1402). After an incubation period of 20 minutes, the luminescent signal is measured with Envision 2104 Multilabel Reader (PERKIN ELMER).

[3] = molecular target: AOC1 (Homo sapiens (Human), UniProt P19801); assay: AOC1 biochemical assay (Amplex Red)
Description: The Amplex® Red Assay (available from Thermo Fisher Scientific) provides a sensitive method for the detection of H2O2 generated during enzymatic reactions like the amine oxidation catalyzed by AOC1. The assay reagent is a colorless substrate (N-acetyl-3,7-dihydroxyphenoxazine) that reacts in a 1:1 stoichiometry with hydrogen peroxide (H2O2) to produce the fluorescent dye resorufin (7-hydroxyphenoxazin-3-one, excitation/emission maxima=570/585 nm).
An aliquot of 3 μL of the compound dilution is added to a 384 well plate (Optiplate, PS, flat bottom F, black, PERKIN ELMER, #6007270) in a DMSO concentration of 6.6%.
An AOC1 enzyme aliquot (#8297-AO-010, R&D Systems) is thawed on ice, diluted in reaction buffer and added in a volume of 7 μL to the wells to give a final assay concentration of 1 ng/well. After incubation of inhibitor and enzyme for 30 minutes at 37° C., the enzymatic reaction is started with the addition of 10 μL of Amplex® Red reaction mix (final assay concentration: 100 mM sodiumphosphate, 120 μM Amplex® Red reagent (#A22177 Molecular Probes), 1.5 U/mL Horseradish Peroxidase (#P8375 Sigma-Aldrich), 200 μM putrescine (#P7505 Sigma-Alrdich), 0.05% Pluronic F-127 (#P3000MP Sigma-Aldrich), pH 7.4, 37° C.).
After an incubation for 30 minutes at 37° C. the turnover of the substrate is determined directly (or after the addition of an excess of an amine-oxidase inhibitor) with a fluorescence reader (Ex 540 nm/Em 590 nm) like Envision 2104 Multilabel Reader (PERKIN ELMER).

[4] = comparison table, read-out: IC50 AOC2
[5] = comparison table, read-out: IC50 AOC3
[6] = comparison table, read-out: IC50 AOC1

Chain of AOC2 (O75106 whole entry): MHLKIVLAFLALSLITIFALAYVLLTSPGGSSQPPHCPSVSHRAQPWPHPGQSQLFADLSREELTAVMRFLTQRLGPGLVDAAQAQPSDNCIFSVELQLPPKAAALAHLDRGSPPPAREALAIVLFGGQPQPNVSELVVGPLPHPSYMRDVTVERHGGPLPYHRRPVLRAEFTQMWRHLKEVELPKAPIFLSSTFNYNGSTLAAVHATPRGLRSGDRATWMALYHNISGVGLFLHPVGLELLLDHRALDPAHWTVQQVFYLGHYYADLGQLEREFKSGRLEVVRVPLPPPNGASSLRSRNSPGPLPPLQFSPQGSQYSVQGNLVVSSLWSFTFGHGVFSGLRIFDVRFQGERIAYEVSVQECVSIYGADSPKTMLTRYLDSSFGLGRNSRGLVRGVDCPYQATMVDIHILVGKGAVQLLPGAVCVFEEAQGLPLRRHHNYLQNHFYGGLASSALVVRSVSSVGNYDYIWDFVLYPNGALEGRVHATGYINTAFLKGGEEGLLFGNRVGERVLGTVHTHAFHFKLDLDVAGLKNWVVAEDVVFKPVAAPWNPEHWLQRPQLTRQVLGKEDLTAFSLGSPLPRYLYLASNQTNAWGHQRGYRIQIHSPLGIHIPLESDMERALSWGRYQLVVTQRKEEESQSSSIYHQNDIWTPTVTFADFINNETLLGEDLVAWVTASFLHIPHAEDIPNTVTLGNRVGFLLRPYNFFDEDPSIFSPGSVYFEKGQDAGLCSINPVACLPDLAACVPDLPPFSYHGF
Chain of AOC1 (P19801 20-751): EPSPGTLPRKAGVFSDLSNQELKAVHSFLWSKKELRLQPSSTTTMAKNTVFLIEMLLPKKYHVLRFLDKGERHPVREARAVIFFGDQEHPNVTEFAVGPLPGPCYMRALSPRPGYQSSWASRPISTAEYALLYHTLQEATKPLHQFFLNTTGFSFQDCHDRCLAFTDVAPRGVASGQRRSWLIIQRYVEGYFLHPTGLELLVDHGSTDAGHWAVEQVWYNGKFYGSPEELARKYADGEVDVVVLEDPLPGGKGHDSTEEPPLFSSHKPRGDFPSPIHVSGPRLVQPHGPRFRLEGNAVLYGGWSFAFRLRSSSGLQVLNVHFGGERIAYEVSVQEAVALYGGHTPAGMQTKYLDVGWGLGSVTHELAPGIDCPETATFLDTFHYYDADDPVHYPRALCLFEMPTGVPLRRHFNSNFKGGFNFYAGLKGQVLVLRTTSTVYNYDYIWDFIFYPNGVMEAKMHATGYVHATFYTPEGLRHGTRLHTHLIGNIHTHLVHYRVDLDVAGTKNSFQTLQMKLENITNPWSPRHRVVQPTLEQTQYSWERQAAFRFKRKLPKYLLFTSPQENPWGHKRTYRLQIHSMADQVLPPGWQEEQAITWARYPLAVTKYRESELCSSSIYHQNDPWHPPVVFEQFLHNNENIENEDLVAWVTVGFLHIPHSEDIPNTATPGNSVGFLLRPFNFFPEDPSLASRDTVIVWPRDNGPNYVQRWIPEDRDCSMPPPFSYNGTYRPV
Chain of human AOC3 enzyme (Q16853 whole entry): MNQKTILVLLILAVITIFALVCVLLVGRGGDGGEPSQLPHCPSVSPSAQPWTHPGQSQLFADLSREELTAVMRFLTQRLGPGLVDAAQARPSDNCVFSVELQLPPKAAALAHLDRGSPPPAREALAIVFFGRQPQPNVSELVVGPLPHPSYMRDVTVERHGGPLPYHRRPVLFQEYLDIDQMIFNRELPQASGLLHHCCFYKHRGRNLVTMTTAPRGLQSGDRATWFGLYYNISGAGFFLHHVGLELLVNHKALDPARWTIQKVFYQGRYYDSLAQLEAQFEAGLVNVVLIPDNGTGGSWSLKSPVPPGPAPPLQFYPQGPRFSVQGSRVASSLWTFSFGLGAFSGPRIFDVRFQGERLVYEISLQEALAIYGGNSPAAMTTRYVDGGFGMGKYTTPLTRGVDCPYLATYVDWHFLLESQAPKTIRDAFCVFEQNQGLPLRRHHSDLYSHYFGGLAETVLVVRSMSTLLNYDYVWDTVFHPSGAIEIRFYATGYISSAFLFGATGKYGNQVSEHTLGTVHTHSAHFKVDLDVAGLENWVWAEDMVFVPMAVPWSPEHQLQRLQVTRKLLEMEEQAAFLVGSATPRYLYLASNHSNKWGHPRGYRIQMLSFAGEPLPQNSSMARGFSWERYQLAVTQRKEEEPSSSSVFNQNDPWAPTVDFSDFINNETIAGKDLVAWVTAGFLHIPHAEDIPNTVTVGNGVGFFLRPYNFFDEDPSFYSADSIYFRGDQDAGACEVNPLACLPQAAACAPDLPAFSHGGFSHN

| SMILES | IC50 ([1]; read-out: AOC2 IC50) | IC50 ([2]; read-out: AOC3 IC50) | IC50 ([3]; read-out: AOC1 IC50) | other results |
| --- | --- | --- | --- | --- |
| CN(C)S(=O)(=O)c1ccc(OC/C(=C/F)CN)cc1 [Compound 14 of WO 2013/163675, reference compound] | – | – | – | fold less active against AOC2 as compared to AOC3 (ratio IC50 AOC2/IC50 AOC3) [1]: ca. 145 fold; IC50 [1, 4]: 1160 nM; IC50 ([1]; read-out: IC50 AOC2): 1160 nM; IC50 [2, 5]: 8 nM; IC50 [3, 6]: > 50 µM |
| CNC(=O)[C@H]1[C@@H]2CN(S(=O)(=O)c3ccc(OC/C(=C/F)CN)nc3)C[C@@H]21 [Example 01, trans-3-[6-((E)-2-Aminomethyl-3-fluoro-allyloxy)-pyridine-3-sulfonyl]-3-aza-bicyclo[3.1.0]hexane-6-carboxylic acid methylamide trifluoroacetate] | 162 nM | 12 nM | 43.4 µM | – |
| NC/C(=C\F)COc1cnc(N2CCC(O)CC2)nc1 [Example 2 of WO 2018/027892, reference compound] | – | – | – | IC50 [2, 5]: 20 nM; IC50 [3, 6]: 0.269 µM |
| CO[C@H]1CCN(c2ncc(OC/C(=C/F)CN)cn2)C1 [Example 5 of WO 2018/027892, reference compound] | – | – | – | IC50 [1, 4]: 497 nM; IC50 [2, 5]: 13 nM; IC50 [3, 6]: 0.268 µM |
| NC/C(=C\F)COc1cnc(N2CC[C@H](O)C2)nc1 [Example 6 of WO 2018/027892, reference compound] | – | – | – | IC50 [1, 4]: 1120 nM; IC50 [2, 5]: 59 nM; IC50 [3, 6]: 1.17 µM |
| CC(=O)N[C@H]1CCCN(S(=O)(=O)c2ccc(OC/C(=C/F)CN)nc2)C1 [Example 06] | 593 nM | – | > 50 µM | – |
| CNC(=O)NC1CCN(S(=O)(=O)c2ccc(OC/C(=C/F)CN)nc2)CC1 [Example 07] | 531 nM | 37 nM | > 50 µM | – |
| CN(C(N)=O)C1CCN(S(=O)(=O)c2ccc(OC/C(=C/F)CN)nc2)CC1 [Example 08] | 524 nM | 37 nM | > 50 µM | – |
| NC/C(=C\F)COc1ccc(S(=O)(=O)N2CCC(C(=O)N3CCC3)CC2)cn1 [Example 13] | 358 nM | 43 nM | > 50 µM | – |
| CC(=O)NCC1CCN(S(=O)(=O)c2ccc(OC/C(=C/F)CN)nc2)CC1 [Example 15] | 263 nM | 38 nM | > 50 µM | – |
| CN(C)C(=O)CC1CCN(S(=O)(=O)c2ccc(OC/C(=C/F)CN)nc2)CC1 [Example 16] | 262 nM | 30 nM | > 50 µM | – |
| NC/C(=C\F)COc1ccc(S(=O)(=O)N2CCC(C(N)=O)CC2)cn1 [Example 17] | 251 nM | 8 nM | > 50 µM | – |
| CC1(O)CN(S(=O)(=O)c2ccc(OC/C(=C/F)CN)nc2)C1 [Example 18] | 244 nM | 37 nM | > 50 µM | – |
| CCNC(=O)CC1CCN(S(=O)(=O)c2ccc(OC/C(=C/F)CN)nc2)CC1 [Example 19] | 214 nM | 32 nM | > 50 µM | – |
| CC(=O)N(C)C1CCN(S(=O)(=O)c2ccc(OC/C(=C/F)CN)nc2)CC1 [Example 20] | 192 nM | 54 nM | > 50 µM | – |
| COC(=O)CC1CCN(S(=O)(=O)c2ccc(OC/C(=C/F)CN)nc2)CC1 [Example 22] | 188 nM | 11 nM | > 50 µM | – |
| CC(=O)NC1CCN(S(=O)(=O)c2ccc(OC/C(=C/F)CN)nc2)C1 (stereo not drawn) [Example 23] | 180 nM | 62 nM | > 50 µM | – |
| CNC(=O)[C@@H]1CCN(S(=O)(=O)c2ccc(OC/C(=C/F)CN)nc2)C1 [Example 24] | 165 nM | – | > 50 µM | – |
| CC(C)(O)C1CN(S(=O)(=O)c2ccc(OC/C(=C/F)CN)nc2)C1 [Example 26] | 164 nM | 45 nM | > 50 µM | – |
| CN(C)C(=O)[C@H]1CCN(S(=O)(=O)c2ccc(OC/C(=C/F)CN)nc2)C1 [Example 27] | 160 nM | 51 nM | > 50 µM | – |
| NC/C(=C\F)COc1ccc(S(=O)(=O)N2CCC(C(=O)NCCO)CC2)cn1 [Example 62] | – | 18 nM | > 50 µM | – |
| NC/C(=C\F)COc1ccc(S(=O)(=O)N2CCC(C(=O)NC3CC3)CC2)cn1 [Example 63] | – | 19 nM | > 50 µM | – |
| NC/C(=C\F)COc1ccc(S(=O)(=O)N2CCC(C(=O)NCCF)CC2)cn1 [Example 64] | – | 17 nM | > 50 µM | – |
| CC(F)(F)CNC(=O)C1CCN(S(=O)(=O)c2ccc(OC/C(=C/F)CN)nc2)CC1 [Example 65] | – | 11 nM | > 50 µM | – |
| NC/C(=C\F)COc1ccc(S(=O)(=O)N2CC[C@H](O)C2)cc1 [Reference compound B, reference compound] | – | – | – | IC50 [2, 5]: 27 nM; IC50 ([3]; comparison table, unit μM, read-out: IC50 AOC1): > 50 µM |

Further lines, with some results ahead:

| IC50 ([1]; read-out: AOC2 IC50) | IC50 ([2]; read-out: AOC3 IC50) | IC50 ([3]; read-out: AOC1 IC50) | SMILES | other results |
| --- | --- | --- | --- | --- |
| 1140 nM | 33 nM | > 50 µM | CCC(=O)NC1CCN(S(=O)(=O)c2ccc(OC/C(=C/F)CN)nc2)CC1 [Example 02] | – |
| 1020 nM | 25 nM | 23.6 µM | CNC(=O)[C@@]12C[C@@H]1CN(S(=O)(=O)c1ccc(OC/C(=C/F)CN)nc1)C2 [Example 03] | – |
| 806 nM | 49 nM | > 50 µM | NC/C(=C\F)COc1ccc(S(=O)(=O)N2CCC(N3CCNC3=O)CC2)cn1 [Example 04] | – |
| 489 nM | 39 nM | 6.17 µM | NC/C(=C\F)COc1ccc(S(=O)(=O)N2CCC(C(=O)N3CCOCC3)(c3ccccc3)CC2)cn1 [Example 09] | – |
| 407 nM | 52 nM | > 50 µM | NC/C(=C\F)COc1ccc(S(=O)(=O)N2CCC(C(=O)N3CCOCC3)CC2)cn1 [Example 10] | – |
| 401 nM | 12 nM | > 50 µM | CCNC(=O)C1CCN(S(=O)(=O)c2ccc(OC/C(=C/F)CN)nc2)CC1 [Example 11] | – |
| 385 nM | 38 nM | > 50 µM | CN(C)C(=O)C1CCN(S(=O)(=O)c2ccc(OC/C(=C/F)CN)nc2)CC1 [Example 12] | – |
| 306 nM | 41 nM | 14.3 µM | CC(=O)N1CC(C2CCN(S(=O)(=O)c3ccc(OC/C(=C/F)CN)nc3)CC2)C1 [Example 14] | – |
| 190 nM | 20 nM | > 50 µM | CN1CCN(C2CCN(S(=O)(=O)c3ccc(OC/C(=C/F)CN)nc3)CC2)C1=O [Example 21] | – |
| 164 nM | 36 nM | 26.7 µM | NC/C(=C\F)COc1ccc(S(=O)(=O)N2CC[C@H](C(=O)N3CCOCC3)C2)cn1 [Example 25] | – |
| 151 nM | – | > 50 µM | CNC(=O)[C@H]1CCN(S(=O)(=O)c2ccc(OC/C(=C/F)CN)nc2)C1 [Example 29] | – |
| – | 18 nM | 27.2 µM | COCCN(C)C(=O)[C@H]1[C@@H]2CN(S(=O)(=O)c3ccc(OC/C(=C/F)CN)nc3)C[C@@H]21 [Example 59] | – |
| – | 23 nM | 31 µM | COCCNC(=O)[C@H]1[C@@H]2CN(S(=O)(=O)c3ccc(OC/C(=C/F)CN)nc3)C[C@@H]21 [Example 66] | – |
